“Also recorded” adds a separate entry of the source.
Tests used:
Format in all cases: cell-based
[1] = target: T1, FKBP* fused to Nluc (Homo sapiens, UniProt P62942+Q96SW2, F37V); assay: Nluc/Fluc luciferase signal ratio assay of FKBP* degradation in 293FT cells; details: wild type or CRBN −/− 293FT; indicated concentrations, 4 hours
T1 construct: Nluc (nano luciferase, fusion partner); expressed in transfected cells; host or cells: 293FT cells (wild type or CRBN-/-)
Method: FIG. 7A and FIG. 7B are graphs measuring the activity of a panel of dFKBP heterobifunctional compounds in cells expressing FKBP* fused to Nluc. Degradation of FKBP* is measured as a signal ratio (Nluc/Fluc) between NANOluc and firefly luciferase from the same multicistronic transcript in wild type (FIG. 7A) or CRBN −/− (FIG. 7B) 293FT cells treated with indicated concentrations of dFKBPs for 4 hours. A decrease in the signal ratio indicates FKBP* (Nluc) degradation.
In an effort to identify potent and selective dFKPB heterobifunctional compounds, high throughput measurements of targeted FKBP* degradation were measured by surrogate levels of luciferase. Here, FKBP* is exogenously expressed as a multicistronic transcript with two types of luciferase: nano luciferase (NLuc) and firefly luciferase (FLuc) that allow for cell normalized quantification of FKBP* protein levels. Degradation of FKBP* is measured as a signal ration (Nluc/Fluc) in wild type (FIG. 7A) or CRBN −/−(FIG. 7B) 293FT cells treated with indicated concentrations of dFKBPs for 4 hours.

[2] = target: T2, CD19-CAR-dTAG (Homo sapiens, UniProt P62942+Q96SW2, F37V/H95N/M50V/V99I); assay: Immunoblot of Jurkat T-cells expressing CD19-CAR-dTAG; details: for degradation of CD19-CAR-dTAG, time dependence: 250 nM, indicated time; for degradation of CD19-CAR-dTAG, dose dependence: indicated dose, 4 hours
T2 construct: HA; expressed in transfected cells; host or cells: Jurkat T-cells (lentiviral transduction, blasticidin selection)
T2 sequence (P62942 with tags, fused parts or gaps F37V/M50V/H95N/V99I limits assumed): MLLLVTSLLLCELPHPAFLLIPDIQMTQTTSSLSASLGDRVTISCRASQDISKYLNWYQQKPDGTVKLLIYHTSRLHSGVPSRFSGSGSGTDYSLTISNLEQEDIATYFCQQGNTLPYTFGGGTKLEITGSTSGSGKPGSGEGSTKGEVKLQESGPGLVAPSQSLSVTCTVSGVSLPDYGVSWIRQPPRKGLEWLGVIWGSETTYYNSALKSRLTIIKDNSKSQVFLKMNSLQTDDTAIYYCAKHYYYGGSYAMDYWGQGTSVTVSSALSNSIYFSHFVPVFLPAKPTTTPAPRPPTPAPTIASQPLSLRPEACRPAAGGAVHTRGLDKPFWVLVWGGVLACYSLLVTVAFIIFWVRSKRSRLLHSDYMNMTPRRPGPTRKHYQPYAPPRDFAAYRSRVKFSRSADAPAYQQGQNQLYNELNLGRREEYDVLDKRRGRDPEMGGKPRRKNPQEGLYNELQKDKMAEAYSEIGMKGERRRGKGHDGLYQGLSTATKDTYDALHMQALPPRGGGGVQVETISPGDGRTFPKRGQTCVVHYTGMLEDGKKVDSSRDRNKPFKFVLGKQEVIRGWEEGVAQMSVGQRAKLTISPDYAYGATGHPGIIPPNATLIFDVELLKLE
T2 sequence (Q96SW2 whole entry): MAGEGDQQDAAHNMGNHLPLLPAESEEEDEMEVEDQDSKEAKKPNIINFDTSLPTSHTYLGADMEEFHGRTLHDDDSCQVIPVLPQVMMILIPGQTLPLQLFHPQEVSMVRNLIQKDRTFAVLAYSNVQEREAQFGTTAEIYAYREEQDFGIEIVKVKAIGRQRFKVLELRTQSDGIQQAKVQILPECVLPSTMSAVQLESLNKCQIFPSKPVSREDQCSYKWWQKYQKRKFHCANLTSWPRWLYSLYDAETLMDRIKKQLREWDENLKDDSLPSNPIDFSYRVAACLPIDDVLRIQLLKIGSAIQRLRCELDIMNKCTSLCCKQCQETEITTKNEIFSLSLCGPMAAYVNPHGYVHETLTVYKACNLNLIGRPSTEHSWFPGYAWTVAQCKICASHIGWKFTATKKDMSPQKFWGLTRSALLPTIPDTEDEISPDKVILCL
T2 sequence (Q16531 whole entry partner): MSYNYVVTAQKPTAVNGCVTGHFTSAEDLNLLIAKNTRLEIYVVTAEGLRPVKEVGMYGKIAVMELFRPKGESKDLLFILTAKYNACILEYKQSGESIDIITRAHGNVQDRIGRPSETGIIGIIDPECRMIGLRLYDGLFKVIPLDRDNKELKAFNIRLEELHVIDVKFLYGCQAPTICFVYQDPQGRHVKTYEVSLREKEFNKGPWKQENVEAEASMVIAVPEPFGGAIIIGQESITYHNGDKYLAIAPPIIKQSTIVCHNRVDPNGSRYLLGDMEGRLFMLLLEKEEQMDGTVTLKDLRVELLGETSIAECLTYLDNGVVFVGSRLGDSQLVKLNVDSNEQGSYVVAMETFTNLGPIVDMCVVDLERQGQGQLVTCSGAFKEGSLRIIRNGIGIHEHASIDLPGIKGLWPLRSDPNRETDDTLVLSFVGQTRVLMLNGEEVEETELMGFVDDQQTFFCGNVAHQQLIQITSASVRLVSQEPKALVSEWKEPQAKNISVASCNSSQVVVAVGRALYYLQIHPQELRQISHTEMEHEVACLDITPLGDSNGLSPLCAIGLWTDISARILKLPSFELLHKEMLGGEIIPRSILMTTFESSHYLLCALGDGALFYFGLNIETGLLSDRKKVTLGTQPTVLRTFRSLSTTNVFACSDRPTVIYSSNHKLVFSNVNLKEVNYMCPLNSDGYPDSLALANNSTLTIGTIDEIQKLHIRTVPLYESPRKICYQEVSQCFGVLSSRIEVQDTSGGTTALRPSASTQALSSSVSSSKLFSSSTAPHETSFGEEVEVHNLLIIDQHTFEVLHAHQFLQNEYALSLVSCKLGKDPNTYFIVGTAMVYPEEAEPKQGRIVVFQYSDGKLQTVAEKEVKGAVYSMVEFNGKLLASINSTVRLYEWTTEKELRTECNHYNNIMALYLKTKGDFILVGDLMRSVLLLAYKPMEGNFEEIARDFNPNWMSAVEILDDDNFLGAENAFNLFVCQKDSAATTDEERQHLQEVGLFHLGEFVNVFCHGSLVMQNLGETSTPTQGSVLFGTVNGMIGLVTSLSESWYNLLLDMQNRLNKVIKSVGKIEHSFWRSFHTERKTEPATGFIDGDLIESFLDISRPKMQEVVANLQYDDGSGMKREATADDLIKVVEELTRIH
Method: Jurkat T-cells were transduced with lentivirus expressing CD19-CAR-dTAG. Cells were selected with blasticidin and expanded. Stable expression of CD19-CAR-dTAG was confirmed.
Jurkat T-cells expressing CD19-CAR-dTAG were treated with the indicated dose of dFKBP7 or dFKBP13 for 4 hours.
FIG. 15A and FIG. 15B are immunoblots of cells treated with bi-functional molecules described in the present invention. Jurkat T-cells expressing CD19-CAR-dTAG were treated with 250 nM of dFKBP7 or dFKBP13 for the indicated time.
Jurkat T-cells expressing CD19-CAR-dTAG were treated with 250 nM of dFKBP7 for 4 hours. The dFKBP7 was then removed from the Jurkat cells via washouts and the re-expression of CD19-CAR-dTAG was monitored by immunoblot analysis at the indicated time points.
(§1) FIG. 17A illustrates the experimental design to measure the ability to control the expression CD19-CAR-dTAG in T-cells upon addition and removal of dFKBP7. Jurkat cells expressing CD19-CAR-dTAG were treated with 250 nM of dFKBP7 at the indicated time points (0 and 8 hours). At 4 and 12 hours, the dFKBP7 was washed out of the Jurkat cells. At each indicated timepoint, Jurkat cells were harvest to monitor CD19-CAR-dTAG expression levels via immunoblot analysis. FIG. 17B is the resulting immunoblot from the experimental design in FIG. 17A.
Jurkat T-cells were transduced with lentivirus expressing CD19-CAR-dTAG. Cells were selected with blasticidin and expanded. Stable expression of CD19-CAR-dTAG in Jurkat cells was confirmed by anti-HA western immunoblotting of whole cell lysates.
In an effort to define the optimal concentration of bifunctional molecules to induce degradation of CD19-CAR-dTAG, degradation was measured upon treatment with increasing concentrations of dFKBP7 and dFKBP13. Jurkat T-cells were engineered to express CD19-CAR-dTAG. Cells were treated with the indicated dose of dFKBP7 or dFKBP13 for 4 hours before lysates were prepared for western immunoblot analysis.
To evaluate the kinetic control of targeted degradation of CD19-CAR-dTAG, a fixed concentration of bi-functional molecules dFKBP7 and dFKBP13 were administered at a fixed concentration for increased duration. Jurkat T-cells were engineered to express CD19-CAR-dTAG. Cells were treated with 250 nM dFKBP7 or dFKBP13 for the indicated time before lysates were prepared for immunoblot analysis.
Immunoblot illustrating the kinetics of re-expression of the CD19-CAR-dTAG protein following targeting degradation with dFKBP7. Jurkat T-cells engineered to express CD19-CAR-dTAG were treated with 250 nM of dFKBP7 for 4 hours. The dFKBP7 was then removed from the Jurkat cells via washouts and the re-expression of CD19-CAR-dTAG was monitored by immunoblot analysis at the indicated time points.
as §1, with “engineered to express” for “expressing”, “analysis.” for “analysis. FIG. 17B is the resulting immunoblot from the experimental design in FIG. 17A.”
FIG. 17B is an immunoblot illustrating the ability to toggle on and off expression of CD19-CAR-dTAG as described in FIG. 17A.

[3] = test system: NIH3T3 expressing FKBP* fused to the N-terminus of KRASG12V; assay: Phase contrast imaging of NIH3T3 cells expressing FKBP*-KRASG12V; details: NIH3T3 expressing dTAG-KRAS; dFKBP13, 24 hours; vs DMSO
Method: FIG. 23A, FIG. 23B, FIG. 23C, and FIG. 23D are panels of phase contrast images of control NIH3T3 cells or NIH3T3 expressing FKBP* fused to the N-terminus of KRASG12V treated with DMSO or dFKBP13 for 24 hours.

[4] = target: T3, FKBP* (Homo sapiens, UniProt P62942, F37V); assay: Immunoblot of 293FT cells (CRBN-WT) expressing FKBP*, pretreated with Carfilzomib, MLN4924 or Lenalidomide before dFKBP13
T3 construct: HA; expressed in transfected cells; host or cells: 293FT cells (CRBN-WT or CRBN-/-)
T3 sequence (P62942 whole entry F37V): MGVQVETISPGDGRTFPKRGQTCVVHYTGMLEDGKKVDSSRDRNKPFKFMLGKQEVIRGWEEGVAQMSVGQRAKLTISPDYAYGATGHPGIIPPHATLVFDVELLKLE
Method: (§2) 293FT cells (CRBN-WT) expressing FKBP* were pretreated with luM Carfilzomib (proteasome inhibitor), 0.5 uM MLN4924 (neddylation inhibitor), and 10 uM Lenalidomide (CRBN binding ligand) for two hours prior to a 4 hour treatment with dFKBP13.
as §2, with “were engineered to express FKBP*. Cells” for “expressing FKBP*”, “dFKBP13. Lysates were prepared and western immunoblot analysis performed.” for “dFKBP13.”

T1 sequence (P62942 2-108 F37V): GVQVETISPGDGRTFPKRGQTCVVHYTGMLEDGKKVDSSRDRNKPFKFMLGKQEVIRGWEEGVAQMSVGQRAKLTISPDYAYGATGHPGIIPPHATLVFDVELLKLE
T1 sequence (Q96SW2 whole entry, the tested form may be a part): as the sequence (Q96SW2 whole entry) above
T1 sequence (Q16531 whole entry partner, the tested form may be a part): as the sequence (Q16531 whole entry partner) above

Structure (SMILES) | FKBP* (Nluc) degradation, signal ratio (Nluc/Fluc) [1] | re-expression of CD19-CAR-dTAG after washout ([2]; Jurkat T-cells, 250 nM dFKBP7 4 hours, then removed via washouts) | degradation of CD19-CAR-dTAG, time dependence ([2]; Jurkat T-cells) | degradation of CD19-CAR-dTAG, dose dependence ([2]; Jurkat T-cells) | rheostat chemical control of CD19-CAR-dTAG expression ([2]; Jurkat cells, 250 nM dFKBP7 at 0 and 8 hours, washed out at 4 and 12 hours) | morphological change of cells [3] | degradation of HA-tagged FKBP* by dFKBP13 after MLN4924 pretreatment ([4]; 0.5 uM MLN4924 (neddylation inhibitor) two hours prior to 4 hour dFKBP13) | degradation of HA-tagged FKBP* by dFKBP13 after Carfilzomib pretreatment ([4]; 1 uM Carfilzomib (proteasome inhibitor) two hours prior to 4 hour dFKBP13) | degradation of FKBP* by dFKBP13 after Lenalidomide pretreatment ([4]; 10 uM Lenalidomide (CRBN binding ligand) two hours prior to 4 hour dFKBP13)
CC[C@H](C(=O)N1CCCC[C@H]1C(=O)O[C@H](CCc1ccc(OC)c(OC)c1)c1cccc(OCC(=O)NCCCOCCOCCOCCCNC(=O)COc2cccc3c2C(=O)N(C2CCC(=O)NC2=O)C3=O)c1)c1cc(OC)c(OC)c(OC)c1 (some centres unmarked) [dFKBP7] | effectively degrade FKBP* in a cereblon dependent manner | protein levels recovered following removal | time-dependent degradation | dose-dependent degradation | allows for exquisite chemical control of CD19-CAR-dTAG protein levels allowing for modulation within hours | – | – | – | –
CC[C@H](C(=O)N1CCCC[C@H]1C(=O)O[C@H](CCc1ccc(OC)c(OC)c1)c1cccc(OCC(=O)NCCCCCCOc2cccc3c2C(=O)N(C2CCC(=O)NC2=O)C3=O)c1)c1cc(OC)c(OC)c(OC)c1 (some centres unmarked) [dFKBP13] | – | – | time-dependent degradation | dose-dependent degradation | – | cells morphologically revert back to the wild type (DMSO control) state; also recorded: morphological change induced | rescued HA-tagged FKBP* | rescued by the proteasome inhibitor Carfilzomib | abolished dFKBP13-dependent FKBP* degradation
